Assay results taken from patent US20160146815A1, “METHOD FOR SCREEING CANCER METASTASIS INHIBITOR USING CULTURE OF CELLS OR SPHEROIDICALLY AGGREGATED CELLS IN WHICH LYSYL-TRNA SYNTHETASE IS REGULATED TO BE EXPRESSED OR UNEXPRESSED” (Medicinal Bioconvergence Research Center, priority 2013, published 2016).
“Also recorded” adds a separate entry of the source.

Experiments:
[1] = tested on: HCT116 spheroid cells; assay: Immunostaining of p-ERKs and paxillin in spheroids in three-dimensional collagen gel (confocal microscope); format: cell-based, human; details: U0126 (50 mM) or YH16899 (50 mM), a day
Protocol: Particularly, collagen type I was distributed in PDMS, which was treated with nothing for a day (FIG. 6A and FIG. 6B) or treated with U0126 (50 mM) or YH16899 (50 mM) (FIG. 6C and FIG. 6D). Collagen gel containing the cultured cells was fixed in 4% formaldehyde for 30 minutes, followed by the treatment with 30 mM glycine for 30 minutes. Permeabilization was induced by using 0.5% triton X-100 for 30 minutes, followed by blocking with 3% BSA solution for 2 hours. The unlabeled p-ERKs (cell signaling) and paxillin (BD bioscience) antibodies were treated thereto at 4° C. at least 16˜18 hours, followed by the treatment with the secondary antibody for at least 4 hours at room temperature. At last, DAPI (4′,6-diamidino-2-phenylindole) solution was treated thereto in order to stain nuclei. The stained cells were observed under confocal microscope.

[2] = tested on: HCT116 parental cells; assay: Western blotting of signaling factors in spheroidically aggregated cells in three-dimensional collagen gel; format: cell-based, human; details: for phosphorylation of FAK / expression of E-cadherin / expression of paxillin / expression of β-catenin / phosphorylation of ERKs / phosphorylation of paxillin: 50 and 100 μM, three-dimensional collagen gel, Western blotting; for phosphorylation of FAK: a day (24 hours); for expression of E-cadherin / expression of paxillin / expression of β-catenin / phosphorylation of ERKs / phosphorylation of paxillin: a day
Protocol: Whole cell extract was collected, followed by Western blotting by the same manner as described in Example <7-2>. At this time, the primary antibodies of pY397FAK, FAK, p-ERKs, ERKs, pY118paxillin, paxillin, E-cadherin, β-catenin, KRS, α-tubulin, pAkt1/2/3, and caspase 3 were used.
SDS, Na3O4V, and protease inhibitor cocktails (GenDepot) were added to lysis buffer, followed by reaction at 4° C. for at least 1 hour. Centrifugation was performed at 4° C., at 13000 rpm, for 30 minutes. The supernatant was transferred into a new microcentrifuge tube. 4×SDS-PAGE sample buffer was added thereto, followed by boiling at 100° C. for 5 minutes. The extract was quantified by Western blotting using α-tubulin antibody (Sigma). Other protein expressions and phosphorylations were also measured by Western blotting.

[3] = tested on: HCT116 parental cells; details: U0126 50 or 100 μM, 24 hours; vs control not treated
Protocol: Particularly, the HCT116 parental cells cultured in a three-dimensional collagen gel environment were either not treated with U0126 or treated with U0126, the ERKs inhibitor, at the concentration of 50 or 100 μM, followed by culture for 24 hours.

[4] = tested on: HCT116 cells; assay: CK14 immunostaining of spheroids in three-dimensional collagen gel; format: cell-based, human; details: U0126 (50 mM) or YH16899 (50 mM), a day, KRS expressing cells
Description: In a three-dimensional collagen gel environment, the dissemination of cells was KRS expression-dependent, and the expressions of epithelial markers involved in cell-cell contact were reduced in the KRS knock-out cell lines. However in the KRS knock-out cell lines, the cell scattering was not observed in a two-dimensional culture environment and the dissemination was not observed in a three-dimensional collagen gel environment. So, in order to confirm whether or not the dissemination of cells from the spheroidically aggregated cells of KRS knock-out cell line in a three-dimensional collagen gel environment was attributed to the expression of epithelial marker, the cell line was cultured in a three-dimensional collagen gel environment for 24 hours. When the dissemination was observed, CK14 staining was performed and the cells were observed under confocal microscope.
Particularly, the collagen gel containing cells were distributed in PDMS, which was treated with nothing for a day (FIG. 9A) or treated with U0126 (50 mM) or YH16899 (50 mM) (FIG. 9B). The collagen gel containing the cultured cells was fixed in 4% paraformaldehyde for 30 minutes, which was then treated with 30 mM glycine for 30 minutes. Then, permeabilization was induced by using 0.5% triton X-100 for 30 minutes, followed by blocking with 3% BSA solution for 2 hours. […]

[5] = tested on: HCT116 spheroidically aggregated cells; assay: Dissemination of cells from spheroidically aggregated cells in three-dimensional collagen gel (time-lapse microscope); format: cell-based, human; details: HCT116 parental cells, U0126 50 μM, three-dimensional collagen gel, real-time live imaging
Protocol: Particularly, 2.5 mg/Ml of collagen containing cells was loaded in the magnetic 4-well chamber (Live Cell Instrument, Korea) for the culture system of time-lapse microscope, and the collagen was hardened in a 37° C. incubator for 30 minutes. When the collagen was fully solidified, PRMI-1640 supplemented with 10% FBS was added thereto. The magnetic chamber containing three-dimensional collagen gel and its corresponding adaptor were placed on the time-lapse microscope, followed by setting the multi-position. […] 5% CO2 incubator. Culture medium was added thereto every 6 hours in order for the collagen not to be dried. At this time, it is important to maintain the focus not to be changed. […]
As confirmed in the result of Example 14, when the HCT116 parental cells were treated with TGFβ1, the dissemination of cells from the spheroidically aggregated cells and migration thereof were observed. When the KRS knock-out cell line was treated with TGFβ1, the dissemination of cells was not observed. […] When the extracellular signal-regulated kinase (ERKs) inhibitor U0126 was treated to the HCT116 parental cells, it was presumed to be negative effect on the dissemination and migration of cells. To verify above, 50 μM of U0126, the ERKs inhibitor, was treated to the cell line, followed by observation of cell dissemination and migration by real-time live imaging of the spheroidically aggregated cells.

[6] = tested on: colorectal cancer cell line SW620; assay: Dissemination of cells from SW620 spheroids in three-dimensional collagen gel (time-lapse imaging); format: cell-based, human; details: SW620 parental cells treated with U0126 or YH16899
Description: Various colorectal cancer cell lines (SW620, HCT15, SNU977, KM12SM, and SNU-05) were stably transfected with shKRS to suppress KRS expression (clones #2 and #5). Then, the dissemination was observed under time-lapse microscope (FIG. 17A) or the signaling activity was investigated after the treatment of YH16899 (FIG. 17B).
Particularly, the colorectal cancer cell lines SW620, HCT15, SNU977, KM12SM, and SNU-05 (Korean Cell Line Bank, Cancer Research Institute, Seoul National University) were distributed in a three-dimensional collagen gel environment as spheroids, followed by time-lapse imaging 6 hours later or followed by normal culture in a two-dimensional environment supplemented with 10% serum for 2 days. Then, lysis buffer (50 mM Tris-HCl, pH7.4, 1% NP-40, 0.25% sodium deoxycholate, 150 mM NaCl, 1 mM EDTA) was added thereto, followed by lysis to obtain cell lysate. The protein in the obtained cell lysate was quantified, followed by Western blotting with the labeled factors.

N#CC(=C(/N)Sc1ccccc1N)/C(C#N)=C(\N)Sc1ccccc1N [U0126]
ERKs phosphorylation level (p-ERKs immunostaining) [1]: inhibited significantly; also recorded: very low
paxillin immunostaining level (paxillin expression) [1]: inhibited significantly; also recorded: significantly reduced
phosphorylation of FAK [2]: suppressed
phosphorylation of FAK ([2]; listed as ERKs inhibitor): significantly reduced
expression of E-cadherin [2]: reduced
expression of paxillin [2]: reduced
expression of β-catenin [2]: reduced
phosphorylation of ERKs [2]: suppressed
phosphorylation of paxillin [2]: reduced; also recorded: suppressed
expression of E-cadherin ([2]; listed as ERKs inhibitor): significantly reduced
expression of paxillin ([2]; listed as ERKs inhibitor): significantly reduced
phosphorylation of paxillin ([2]; listed as ERKs inhibitor): significantly reduced
expression of E-cadherin ([2]; listed as U1026): decreased
expression of paxillin ([2]; listed as U1026): inhibited
expression of β-catenin ([2]; listed as U1026): decreased
phosphorylation of ERKs ([2]; listed as U1026): inhibited
phosphorylation of paxillin ([2]; listed as U1026): inhibited
expression of the epithelial marker ([2]; HCT116 cell line in three-dimensional collagen gel, FIG. 18 legend): increased
expression level of E-cadherin mRNA [3]: significantly reduced
CK14 expression [4]: significantly suppressed
CK14 expression ([4]; listed as U1026): low and very low
dissemination and migration of cells from the spheroid [5]: suppression
dissemination and migration of cells from the spheroid ([5]; listed as ERKs inhibitor): did not cause cell migration and dissemination; also recorded: not induced
dissemination and migration of cells from the spheroid ([5]; listed as ERKs inhibitors): inhibited
dissemination and migration of cells from the spheroid ([5]; listed as U1026): inhibited
dissemination of cells from the three-dimensional spheroid cells [6]: not observed
